# Data taken from patent US5882881A, “Inhibition of cyst formation by cytoskeletal specific drugs” (priority 1998, dated 1999).
# Several values for one entry are separate records, joined by “and”; a condition that tells them apart may be missing. Equal entries are not always repeated. Entries after “also recorded” stand apart in the source; their conditions may differ.
# Tests used:
# Murine CPK Cells [1] = assay: In vitro cyst formation and cyst size in suspension culture of murine CPK cells; type: cell-based, mouse; details: for Cyst Size: mean ± SD of twenty cysts, concentrations as in Table II, control 71 ± 22; for cyst formation (in words): murine CPK cells, 24 h suspension culture, ouabain 0.5 mM, also 1 mM, b155 taxol 25 μM, colchicine 10 μM, vinblastine 1 μM, cytochalasins 10 μM, model species not given
# Protocol: At 10, 21 and 28 days after birth, mice having congenital polycystic kidney disease (CPK) and their phenotypically normal littermates were sacrificed by cervical dislocation. Kidneys were harvested aseptically and washed with DMEM/F12 (Sigma Chemical Co., St. Louis, Mo.) in a 1:1 mix. Each decapsulated kidney was chopped into cubes (1 mm) and incubated in 5 ml of collagenase solution composed of 1 mg/ml collagenase type IV (Worthington Biochemical Corporation, Freehold, N.J.), 1 mg/ml egg white trypsin inhibitor (Worthington) in 1:1 DMEM/F12.
# The top 12 mls, which contained both single cells and aggregates of up to 10 cells, as assessed by inverted phase-ontrast microscopy, were placed in 2 ml aliquots in the wells of plastic culture plates (Corning, N.Y.) precoated with 1% agarose in DMEM:F12 (2 ml in each well of a 6-well plate; 1 ml in each well of a 24-well plate). Cell samples were digested with further incubation for 10 minutes in 0.05% trypsin and 0.53 mM EDTA (Gibco, BRL Gaithesburg, Md.) at 37° C. All cultures were plated at a final density of 1-3×10^4 cell, per well. For growth studies of monolayer cells, identical preparations were grown on the plastic surface of the culture plates. Both the monolayers and the cell suspensions were incubated at 37° C. in a moisture saturated incubator in 5% CO2 and air.
# (§1) I used the in vitro cyst formation system of the present invention to analyze compounds that affect the process of cyst formation. To determine the therapeutic effectiveness of an agent, cyst-forming cells are suspended in a medium to which the agent has been added. These cells are then cultured on a solid phase without formation of a layer of cells on the surface, such as in the assay system described in Example 1. The extent to which the cells actually form cysts can be detected and compared to the extent of cyst formation expected if no agent were added. If the amount of cyst formation is lower than expected, then the agent is a good candidate for therapeutic intervention of cystic diseases.
# (§2) The effects of various metabolic inhibitors on cyst formation were studied in cultures derived from day 21 postnatal CPK mice. […] Taxol (25 μM), a microtubule specific inhibitor, was from Calbiochem (La Jolla, Calif.). All other chemicals were obtained from Sigma Chemical Co. Cytosine arabinoside was added at the final concentration of 20 μg/ml to inhibit DNA synthesis; α-amanitin at 100 ng/ml to inhibit RNA synthesis; cycloheximide at 40 μg/ml to inhibit protein synthesis; amiloride at 1 mM to inhibit the renal epithelial Na^+ -H^+ exchange; ouabain at 0.5 mM to inhibit Na^+ -K^+ -ATPase; brefeldin-A at 10 μg/ml to inhibit transport of surface proteins; griseofulvin at 350 μM to inhibit microtubule function; colchicine at 10 μM to inhibit microtubule polymerization; and cytochalasin-B and cytochalasin-D at 10 μM to depolymerize actin filaments.
# (§3) In the presence of these metabolic inhibitors in vitro, cyst formation was noted to be either present or absent; if present, the diameters of 20 cysts from a 0.2 ml aliquot were measured. In the same samples, ^3 H-dThd incorporation was also measured as described above. […] After each wash, cell clusters were collected by centrifuging at 200×g for 1 minute and the supernatant discarded. Washed cell clusters were resuspended in the original volume of growth medium without inhibitors, placed in agarose coated wells and incubated at 37° C. in a moisture saturated incubator in 5% CO2 and air.
# (§4) In this table, the mean cyst size is reported as ±SD with a measurement of twenty cysts. The ^3 H-dThd incorporation is reported as ±SD using measurements of three wells. The * indicates […] versus control. […] The entries listed as "NA" in the table indicate data that is not available.
# Murine CPK Cells [2] = assay: as above; type: cell-based, mouse; details: day 21, 24 h, final concentration per Table II (cytosine arabinoside 20 μg/ml, α-amanitin 100 ng/ml, cycloheximide 49 μg/ml, ouabain 1 mM, amiloride 1 mM, brefeldin-A 10 μg/ml, griseofulvin 350 μM, colchicine 10 μM, vinblastine 1 μM, nocodazole 30 μM, taxol 25 μM, cytochalasins 10 μM)
# homozygous cpk mice = assay: Survival of cpk mice on weekly griseofulvin (Example 9); type: in vivo, mouse
# Protocol: Although the mechanism of its inhibitory activity is not presently understood, this antifungal agent is known to have a colchicine-like effect on mitosis.
# Nine homozygous cpk mice, raised and identified as in Example 6 were treated with 25 μl of 24 mg/ml griseofulvin in DMSO through intraperitoneal injection beginning 10-12 days after birth. After the first treatment, the mice were administered with the same treatment once every week thereafter.
# human ADPKD cells = assay: In vitro cyst formation in human ADPKD cells; type: cell-based
# Excerpt: I have substituted human ADPKD cells for the murine CPK cells of Example 1 and produced similar results. Other cyst-forming cells are believed to also form suitable results with only minor deviations from the conditions set forth in Example 1.
# Cell suspensions were separated from debris by sedimentation at unit gravity and decantation. After washing once with DMEM/F12 medium, cells were suspended in DMEM/F12 supplemented with 1.2 gm/l sodium bicarbonate, 1× insulin, transferrin and selenium (Sigma # 11184), 1% lipids supplement (Sigma # L4646) and 1× antibiotic/antimycotic (Sigma # A7292) at a density of 5×10^4 cells per ml. Two mls of the cell suspension were aliquoted into each well of a six-well plastic cell culture plates that had been precoated with 2 mls of 1% low melting point agarose in DMEM/F12 and incubated at 37° C. in a humidified atmosphere of 5% CO2 in air.
# as §1
# Na^+ K^+ -ATPase = details: triiodothyronine; ouabain 0.2 mM; cited from earlier work
# Murine CPK Cells [3] = assay: 3H-thymidine incorporation (DNA synthesis) in CPK cell suspension culture; type: cell-based, mouse; details: ± SD, three wells; concentrations as in Table II; control 100 ± 11; 1440 min
# Protocol: Growth studies were performed on kidney cells derived from day 10, 21 and 28 postnatal CPK mice and their normal littermates. Immediately after cells were placed in suspension or monolayer culture, 3 μCi of ^3 H-thymidine (^3 H-dThd, specific activity 45 Ci/mmol, Amersham, Ill.) was placed in each well of the culture plate. DNA synthesis was assessed by incorporation of ^3 H-dThd over the 24 hours of culture, and trichloroacetic acid-insoluble. radioactivity was expressed as cpm/μg protein. Protein was assayed with the BCA reagent as described by the manufacturer (Pierce, Rockford, Ill.). At 24 hours of culture, an aliquot (0.2 ml) of the suspension was removed and the number of cysts counted using an inverted microscope. The number of cysts was expressed as a ratio factored for the total number of cells in the suspension at 24 hours of culture. Cyst diameter was measured at 100× using an eyepiece micrometer.
# as §2, §3, §4
# Murine CPK Cells [4] = assay: Cell viability, trypan blue exclusion, CPK suspension culture; details: 1.0 mM ouabain
# Protocol: as §2, with “[…];” for “ouabain at 0.5 mM to inhibit Na^+ -K^+ -ATPase;”
# neonatal CPK kidneys = details: triiodothyronine pharmacological doses; ouabain 0.2 mM; cited from earlier work
# [5] = system: normal and polycystic human kidney epithelial cells; details: embedded in type 1 collagen; cited from earlier work
compound,measurement,setting,value
COC1=CC(=O)C[C@@H](C)[C@]12Oc1c(Cl)c(OC)cc(OC)c1C2=O [Griseofulvin],Cyst Size,Murine CPK Cells [1],0 μm
same,cyst formation (in words),Murine CPK Cells [1],inhibits the formation of cysts
same,Cyst Formation (+/-),Murine CPK Cells [2],-
same,minimum average lifespan,"homozygous cpk mice; 25 μl of 24 mg/ml griseofulvin in DMSO i.p. weekly from 10-12 days, untreated controls 33.5±6.3 days, preliminary",at least 49±15.8 days
same,age of mice still alive,"homozygous cpk mice; remaining three of nine mice, weekly griseofulvin i.p.",78 days of age and 54 days of age and 63 days of age
same,age at death of individual mice,"homozygous cpk mice; six of nine mice, weekly griseofulvin i.p.",31 days of age and 34 days of age and 35 days of age and 41 days of age and 45 days of age and 60 days of age
C[C@@H]1O[C@@H](O[C@H]2C[C@@H](O)[C@]3(CO)[C@H]4[C@H](O)C[C@]5(C)[C@@H](C6=CC(=O)OC6)CC[C@]5(O)[C@@H]4CC[C@]3(O)C2)[C@H](O)[C@H](O)[C@H]1O [Ouabain],cyst formation (in words),"human ADPKD cells; human ADPKD cells, cytosine arabinoside 20 μg/ml, α-amanitin 100 ng/ml, cycloheximide 40 μg/ml, amiloride 1 mM, ouabain 0.5 mM, taxol 25 μM, colchicine 10 μM, vinblastine 1 μM, cytochalasins 10 μM",potent inhibitor of cyst formation; also recorded: completely block cyst formation; also recorded: cyst formation can be blocked
same,time to lumen appearance after removing the inhibitor,human ADPKD cells; human model,twenty-four
same,reversibility of inhibition of cyst formation,"human ADPKD cells; human model, inhibitor removed",reversible
same,Cyst Size,Murine CPK Cells [1],0 μm
same,cyst formation (in words),Murine CPK Cells [1],not to inhibit cyst formation in these cells; also recorded: cyst inhibiting activity was observed; also recorded: did not prevent the formation of CPK cysts
same,Cyst Formation (+/-),Murine CPK Cells [2],-
same,renal Na^+ K^+ -ATPase activity (in words),Na^+ K^+ -ATPase,decrease
same,^3 H-dThd Incorporation,Murine CPK Cells [3],104 ± 9 % control
same,cell death / reduction of cell viability (in words),Murine CPK Cells [4],extensive cell death; also recorded: large scale reduction of cell viability
same,proximal tubular cysts maintained / effect abolished,neonatal CPK kidneys,abolished
C=C[C@@]1(C)CC(=O)[C@]2(O)[C@@]3(C)[C@@H](O)CCC(C)(C)[C@@H]3[C@H](O)[C@H](OC(C)=O)[C@@]2(C)O1 [forskolin],induction of cysts,[5],can be induced to produce cysts
N[C@@H](Cc1cc(I)c(Oc2ccc(O)c(I)c2)c(I)c1)C(=O)O [triiodothyronine],renal Na^+ K^+ -ATPase activity (in words),Na^+ K^+ -ATPase,increase
same,proximal tubular cysts maintained / effect abolished,neonatal CPK kidneys,can be maintained
epidermal growth factor: stimulates cyst formation of kidney epithelial cells in collagen,induction of cysts,[5],can be induced to produce cysts
